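Growth conditions: 96-well plates. Treatment: test compound, 48 hours, 5 concentrations. Analysis: linear interpolation between bracketing concentrations; unreached endpoints set to highest concentration. GI50 = concentration required for 50% inhibition of growth.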 Activity calls are given as the source filed them. No stated cut-off is given here; in the data, active = GI50 up to about 1.1 µM and inactive = higher. Where a SMILES comes first, the peptide text is derived from it. [ ]: non-standard residue; d: D form. The star is where a group is joined. NMeF = CN[C@@H](Cc1ccccc1)C(=O)O; NMeV = CN[C@H](C(=O)O)C(C)C; Boc = CC(C)(C)OC(=O)*; OBn = c1ccc(CO*)cc1
Columns and labels:
Assay in all cases: growth of human tumour cells (NCI), 48 h
[1] = test system: 786-0
[2] = test system: EKVX
[3] = test system: Hs-578T
[4] = test system: IGROV-1
[5] = test system: KM12
[6] = test system: M14
[7] = test system: NCI-H226
[8] = test system: NCI-H460
[9] = test system: NCI-H522
[10] = test system: NCI/ADR-RES
[11] = test system: PC-3
[12] = test system: SF-268
[13] = test system: SF-295
[14] = test system: SK-MEL-28
[15] = test system: SK-MEL-2
[16] = test system: SN12C
[17] = test system: SNB-19
[18] = test system: TK-10
[19] = test system: UACC-257
[20] = test system: UACC-62

SMILES | GI50 [1] | GI50 [2] | GI50 [3] | GI50 [4] | GI50 [5] | GI50 [6] | GI50 [7] | GI50 [8] | GI50 [9] | GI50 [10] | GI50 [11] | GI50 [12] | GI50 [13] | GI50 [14] | GI50 [15] | GI50 [16] | GI50 [17] | GI50 [18] | GI50 [19] | GI50 [20]
O=C1c2cccc3cc([N+](=O)[O-])cc(c23)C(=O)N1CCCN1CCN(CCCNc2ccc3ncn4c5ccccc5c(=O)c2c34)CC1 | < 0.005 µM (active) | < 0.005 µM (active) | < 0.005 µM (active) | < 0.005 µM (active) | < 0.005 µM (active) | < 0.005 µM (active) | < 0.005 µM (active) | < 0.005 µM (active) | < 0.005 µM (active) | < 0.005 µM (active) | < 0.005 µM (active) | < 0.005 µM (active) | < 0.005 µM (active) | 0.0562 µM (active) | 0.0191 µM (active) | < 0.005 µM (active) | < 0.005 µM (active) | < 0.005 µM (active) | < 0.005 µM (active) | < 0.005 µM (active)
C[N+]1(CCC(=O)c2ccco2)CC2CCC(CC2)C1 (stereo not given) | > 100 µM (inactive) | > 100 µM (inactive) | > 100 µM (inactive) | > 100 µM (inactive) | > 100 µM (inactive) | > 100 µM (inactive) | > 100 µM (inactive) | > 100 µM (inactive) | > 100 µM (inactive) | > 100 µM (inactive) | > 100 µM (inactive) | > 100 µM (inactive) | > 100 µM (inactive) | > 100 µM (inactive) | > 100 µM (inactive) | > 100 µM (inactive) | > 100 µM (inactive) | > 100 µM (inactive) | > 100 µM (inactive) | > 100 µM (inactive)
OC1(C(F)(F)F)OCCN=C1C(F)(F)F (stereo not given) | > 100 µM (inactive) | > 100 µM (inactive) | 17.2 µM (inactive) | 99.3 µM (inactive) | > 100 µM (inactive) | > 100 µM (inactive) | > 100 µM (inactive) | > 100 µM (inactive) | 40.4 µM (inactive) | 88.3 µM (inactive) | > 100 µM (inactive) | 53.8 µM (inactive) | > 100 µM (inactive) | > 100 µM (inactive) | 31.5 µM (inactive) | 65.9 µM (inactive) | > 100 µM (inactive) | > 100 µM (inactive) | > 100 µM (inactive) | > 100 µM (inactive)
CC1=NN(c2nc(N)nc(/C(C#N)=C/c3cccn3-c3cc(Cl)cc(Cl)c3)n2)C(C)(C)C1 | > 100 µM (inactive) | > 100 µM (inactive) | 32.9 µM (inactive) | > 100 µM (inactive) | > 100 µM (inactive) | > 100 µM (inactive) | > 100 µM (inactive) | > 100 µM (inactive) | > 100 µM (inactive) | > 100 µM (inactive) | 11.5 µM (inactive) | 15.5 µM (inactive) | > 100 µM (inactive) | > 100 µM (inactive) | > 100 µM (inactive) | 35.2 µM (inactive) | 40.6 µM (inactive) | > 100 µM (inactive) | > 100 µM (inactive) | > 100 µM (inactive)
CC(C)[C@@H](C(=O)N1CCC[C@H]1C(=O)OCc1ccccc1)N(C)C(=O)[C@H](C(C)C)N(C)C(=O)[C@H](Cc1ccccc1)N(C)C(=O)[C@H](NC(=O)OC(C)(C)C)C(C)C (Boc-[dV][NMeF][NMeV][NMeV]P-OBn) | > 50 µM (inactive) | > 50 µM (inactive) | > 50 µM (inactive) | > 50 µM (inactive) | > 50 µM (inactive) | > 50 µM (inactive) | > 50 µM (inactive) | > 50 µM (inactive) | > 50 µM (inactive) | > 50 µM (inactive) | > 50 µM (inactive) | > 50 µM (inactive) | > 50 µM (inactive) | > 50 µM (inactive) | > 50 µM (inactive) | > 50 µM (inactive) | > 50 µM (inactive) | > 50 µM (inactive) | > 50 µM (inactive) | > 50 µM (inactive)

Reference: ChEMBL document CHEMBL1201862, “PubChem BioAssay data set” (2004)
